In PubChem BioAssay (NCI):
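Five concentrations, 48 hours, 96-well plates. GI50 = concentration required for 50% inhibition of growth. Definition used: TGI = concentration required for complete inhibition of growth.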

What was measured:
Assay in all cases: DTP human tumour cell line panel, 48 h; in the data active means GI50 below about 0.43 µM; inactive means the rest
MOLT-4 leukemia = tested on: MOLT-4 leukemia
PC-3 prostate = tested on: PC-3 prostate
BT-549 breast = tested on: BT-549 breast
UACC-62 melanoma = tested on: UACC-62 melanoma
RPMI-8226 leukemia = tested on: RPMI-8226 leukemia
K-562 leukemia = tested on: K-562 leukemia
OVCAR-8 ovarian = tested on: OVCAR-8 ovarian
OVCAR-4 ovarian = tested on: OVCAR-4 ovarian
KM12 colon = tested on: KM12 colon
LOX IMVI melanoma = tested on: LOX IMVI melanoma
HL-60(TB) leukemia = tested on: HL-60(TB) leukemia
CAKI-1 renal = tested on: CAKI-1 renal
NCI/ADR-RES ovarian = tested on: NCI/ADR-RES ovarian
SNB-75 CNS = tested on: SNB-75 CNS
A498 renal = tested on: A498 renal
HOP-92 NSCLC = tested on: HOP-92 NSCLC
SK-MEL-28 melanoma = tested on: SK-MEL-28 melanoma
SK-MEL-5 melanoma = tested on: SK-MEL-5 melanoma
HCT-15 colon = tested on: HCT-15 colon
OVCAR-5 ovarian = tested on: OVCAR-5 ovarian
MDA-MB-435 = tested on: MDA-MB-435
SK-MEL-2 melanoma = tested on: SK-MEL-2 melanoma
HS 578T breast = tested on: HS 578T breast
T-47D breast = tested on: T-47D breast
NCI-H460 lung = tested on: NCI-H460 lung
SK-OV-3 ovarian = tested on: SK-OV-3 ovarian
DU-145 prostate = tested on: DU-145 prostate
SF-295 CNS = tested on: SF-295 CNS
SN12C renal = tested on: SN12C renal

COc1ccc(-n2cc(-c3ccc(Cl)c(Cl)c3)nc2SCc2cccc(C#N)c2)cc1
inactive: GI50 (MOLT-4 leukemia) 19.4 µM | GI50 (PC-3 prostate) 34.1 µM | GI50 (BT-549 breast) 21.4 µM | GI50 (UACC-62 melanoma) 19.1 µM | GI50 (RPMI-8226 leukemia) > 100 µM | GI50 (K-562 leukemia) > 100 µM | GI50 (OVCAR-8 ovarian) 18.6 µM | GI50 (OVCAR-4 ovarian) 11.9 µM | GI50 (KM12 colon) > 100 µM | GI50 (LOX IMVI melanoma) 13.9 µM | GI50 (HL-60(TB) leukemia) > 100 µM | GI50 (CAKI-1 renal) 18 µM | GI50 (NCI/ADR-RES ovarian) 23 µM | GI50 (SNB-75 CNS) 17 µM | GI50 (A498 renal) 12.6 µM | GI50 (HOP-92 NSCLC) 10.1 µM | GI50 (SK-MEL-28 melanoma) 20.2 µM | GI50 (SK-MEL-5 melanoma) 20.2 µM | GI50 (HCT-15 colon) 42.8 µM | GI50 (OVCAR-5 ovarian) 94.1 µM | GI50 (MDA-MB-435) 12.5 µM | GI50 (SK-MEL-2 melanoma) > 100 µM | GI50 (HS 578T breast) 18.4 µM | GI50 (T-47D breast) 5.33 µM | GI50 (NCI-H460 lung) 51.5 µM | GI50 (SK-OV-3 ovarian) 26.2 µM | GI50 (DU-145 prostate) > 100 µM | GI50 (SF-295 CNS) 22.2 µM | GI50 (SN12C renal) 14 µM
40.3 µM: TGI (HOP-92 NSCLC)
53.4 µM: TGI (SNB-75 CNS)
74 µM: TGI (T-47D breast)
> 100 µM: TGI (MOLT-4 leukemia) | TGI (PC-3 prostate) | TGI (BT-549 breast) | TGI (UACC-62 melanoma) | TGI (RPMI-8226 leukemia) | TGI (K-562 leukemia) | TGI (OVCAR-8 ovarian) | TGI (OVCAR-4 ovarian) | TGI (KM12 colon) | TGI (LOX IMVI melanoma) | TGI (HL-60(TB) leukemia) | TGI (NCI/ADR-RES ovarian) | TGI (SK-MEL-28 melanoma) | TGI (SK-MEL-5 melanoma) | TGI (HCT-15 colon) | TGI (OVCAR-5 ovarian) | TGI (MDA-MB-435) | TGI (SK-MEL-2 melanoma) | TGI (HS 578T breast) | TGI (NCI-H460 lung) | TGI (SK-OV-3 ovarian) | TGI (DU-145 prostate) | TGI (SF-295 CNS)
48.8 µM: TGI (CAKI-1 renal)
35.7 µM: TGI (SN12C renal)
44.5 µM: TGI (A498 renal)
